Data taken from US9783552B2, “Soluble guanylate cyclase activators” (MERCK SHARP & DOHME CORP., priority 2013, dated 2017).
pEC50: −log10 of the molar value.

Experiments:
[1] = biological target: T1, sGC α1/β1 heterodimer (Homo sapiens, UniProt Q02108+Q02153); test: Cell-Based sGC Functional Assay (CASA Assay); conditions: CHO-K1/sGC cells; for pEC50: intracellular cGMP by HTRF, 1 hr at 37° C., IP from 4P fit, presence or absence of 1 μM DETA-NO not given; for Emax: cGMP as percentage of maximum cGMP production of Compound A (=100% activation), read-out: % ACT (percent activation)
T1 construct: expressed in transfected cells
T1 sequence (Q02108 1-690): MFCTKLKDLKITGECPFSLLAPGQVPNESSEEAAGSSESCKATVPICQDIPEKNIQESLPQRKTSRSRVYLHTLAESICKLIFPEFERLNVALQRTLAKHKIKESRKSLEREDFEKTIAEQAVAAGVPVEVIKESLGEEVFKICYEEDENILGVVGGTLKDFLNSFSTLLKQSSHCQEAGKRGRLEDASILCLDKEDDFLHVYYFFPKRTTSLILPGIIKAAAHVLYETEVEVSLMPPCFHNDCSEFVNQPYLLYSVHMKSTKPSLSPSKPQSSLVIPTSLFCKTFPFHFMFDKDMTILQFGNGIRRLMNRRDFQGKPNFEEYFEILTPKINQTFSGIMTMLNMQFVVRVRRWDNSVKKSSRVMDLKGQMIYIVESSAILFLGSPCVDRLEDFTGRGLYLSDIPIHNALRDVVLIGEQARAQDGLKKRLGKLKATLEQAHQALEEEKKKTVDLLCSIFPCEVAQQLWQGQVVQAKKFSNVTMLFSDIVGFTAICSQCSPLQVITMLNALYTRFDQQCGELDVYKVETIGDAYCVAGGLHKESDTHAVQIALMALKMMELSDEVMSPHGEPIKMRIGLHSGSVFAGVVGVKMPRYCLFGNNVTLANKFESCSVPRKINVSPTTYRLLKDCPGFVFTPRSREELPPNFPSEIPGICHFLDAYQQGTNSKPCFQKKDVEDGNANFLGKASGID
T1 sequence (Q02153 1-619): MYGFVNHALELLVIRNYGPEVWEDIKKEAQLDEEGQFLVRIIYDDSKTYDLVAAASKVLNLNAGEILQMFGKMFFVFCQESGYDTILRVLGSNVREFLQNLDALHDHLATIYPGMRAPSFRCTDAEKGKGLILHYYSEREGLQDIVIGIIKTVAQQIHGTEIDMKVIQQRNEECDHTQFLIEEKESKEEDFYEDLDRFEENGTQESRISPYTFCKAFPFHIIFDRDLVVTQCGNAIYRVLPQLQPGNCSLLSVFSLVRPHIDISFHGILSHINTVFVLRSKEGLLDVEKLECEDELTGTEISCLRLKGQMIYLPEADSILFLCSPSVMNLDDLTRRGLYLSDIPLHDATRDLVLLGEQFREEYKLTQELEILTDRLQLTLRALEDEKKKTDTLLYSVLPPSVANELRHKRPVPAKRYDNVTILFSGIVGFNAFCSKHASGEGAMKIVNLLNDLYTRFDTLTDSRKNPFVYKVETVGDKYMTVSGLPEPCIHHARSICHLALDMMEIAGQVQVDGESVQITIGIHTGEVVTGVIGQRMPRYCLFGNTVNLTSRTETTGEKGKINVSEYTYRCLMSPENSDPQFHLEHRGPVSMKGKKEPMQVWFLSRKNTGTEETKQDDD
In short: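 cGMP accumulation was quantified by HTRF in stable human sGC α1/β1 CHO-K1 cells after 1 hr at 37 °C with compound, 0.5 mM IBMX and 2.5% DMSO. Runs were done in the presence and absence of 1 μM of the NO donor DETA-NO. Activation was normalised to the reference heme-dependent activator maximum (100%), and a 4P fit gave IP and maximum fold induction.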

[2] = test system: Spontaneously hypertensive rats (SHR); test: Acute Efficacy in Spontaneously Hypertensive Rats (SHR); format: in vivo, rat; conditions: single oral gavage
Excerpt: Acute Efficacy in Spontaneously Hypertensive Rats (SHR)
Spontaneously hypertensive rats (SHR, male, Charles River) were implanted with DSI TA 11PA-C40 telemetry device (Data Sciences, Inc., St. Paul, Minn.) under isoflurane or ketamine/metomidine anesthesia. The telemetry unit catheter was inserted into the descending aorta via the femoral artery and the telemetry device was implanted subcutaneously in the left flank area. Animals were allowed to recover from surgery for 14 days before the start of any studies. Blood pressure, heart rate, and activity signals from conscious, freely moving rats were recorded continuously for 30 seconds every 10 min. On the day prior to administration of compound, a single oral dose of vehicle (10% transcutol/20% Cremophor/70% water) was administered to all animals to establish baseline control data. The blood pressure lowering efficacy of compound (PO) or vehicle was evaluated following a single oral gavage. Data were collected as hourly averages, and changes in blood pressure were calculated by subtracting control baseline data on an hourly basis. Animals were maintained on normal diet with a 12 h light-dark cycle.
Maximum peak decreases of systolic blood pressure (SBP) in SHR at a particular P.O. dose (mpk milligrams per kilogram) for the following Example compounds are provided. Category A=SBP in SHRs<25 mmHg; Category B=SBP in SHRs 25-40 mmHg; Category C=SBP in SHRs>40 mmHg.

Row | Compound | pEC50 [1] | Emax [1] [%] | Maximum peak decrease of systolic blood pressure (SBP) in SHR, Category ([2]; Dose 3 mpk P.O.) | Maximum peak decrease of systolic blood pressure (SBP) in SHR, Category ([2]; Dose 1 mpk P.O.)
1 | CCn1ncc2c(-c3nc(N)c4c(n3)NC(=O)C4(C)c3ccccc3)nc(CCC(F)(F)C(F)(F)F)nc21 (single isomer, unassigned) [Example 7, 4-Amino-2-(1-ethyl-6-(3,3,4,4,4-pentafluorobutyl)-1H-pyrazolo[3,4-d]pyrimidin-4-yl)-5-methyl-5-phenyl-5H-pyrrolo[2,3-d]pyrimidin-6(7H)-one] | 7.07 | 110 | B (Category B=SBP in SHRs 25-40 mmHg) | 
2 | Cn1ncc2c(-c3nc(N)c4c(n3)NC(=O)C4(C)c3ccc(F)cc3)nc(Cc3cccc(F)c3F)nc21 (single isomer, unassigned) [Example 6, 4-Amino-2-(6-(2,3-difluorobenzyl)-1-methyl-1H-pyrazolo[3,4-d]pyrimidin-4-yl)-5-(4-fluorophenyl)-5-methyl-5H-pyrrolo[2,3-d]pyrimidin-6(7H)-one] | 6.80 | 127 | A (Category A=SBP in SHRs<25 mmHg) | 
3 | Cn1ncc2c(-c3nc(N)c4c(n3)NC(=O)C4(C)c3ccc(F)cc3)nc(CCC(F)(F)C(F)(F)F)nc21 (single isomer, unassigned) [Example 9, 4-Amino-5-(4-fluorophenyl)-5-methyl-2-(1-methyl-6-(3,3,4,4,4-pentafluorobutyl)-1H-pyrazolo[3,4-d]pyrimidin-4-yl)-5H-pyrrolo[2,3-d]pyrimidin-6(7H)-one] | 7.34 | 110 |  | C (Category C=SBP in SHRs>40 mmHg)
4 | [2H]C([2H])([2H])n1ncc2c(-c3nc(N)c4c(n3)NC(=O)C4(C)C(=O)NC3CC3)nc(CCC(F)(F)C(F)(F)F)nc21 (single isomer, unassigned) [Example 32, 4-Amino-N-cyclopropyl-5-methyl-2-(6-(3,3,4,4,4-pentafluorobutyl)-1-trideuteriomethyl-1H-pyrazolo[3,4-d]pyrimidin-4-yl)-6-oxo-6,7-dihydro-5H-pyrrolo[2,3-d]pyrimidine-5-carboxamide] | 7.28 | 131 |  | A (Category A=SBP in SHRs<25 mmHg)
